In patent publication US20210253557A1, “SUBSTITUTED TRIAZOLE DERIVATIVES AND USES THEREOF” (Bayer Pharma Aktiengesellschaft, priority 2017, published 2021):
pIC50: −log10 of the molar value. Where a name gives a salt, the structure may show the parent alone.

What was measured:
[1] = molecular target: T1, human V2 receptor (Homo sapiens, UniProt P30518); assay: Cellular in vitro assay for determining vasopressin receptor activity (V2, CRE-luciferase); format: cell-based; conditions: CHO cell line transfected with the human V2 receptor; [Arg8]-vasopressin at EC50 concentration; read-out: IC50 hV2
T1 construct: expressed in transfected cells; host or cells: CHO K1 (ATCC) expressing firefly luciferase under a CRE-responsive promoter
Summary of the method: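 Antagonism was measured as inhibition of a 3-h, EC50-level [Arg8]-vasopressin stimulation, with compounds tested at several concentrations, yielding IC50 values. The read-out was cAMP-driven CRE-luciferase luminescence after lysis, in recombinant CHO K1 cells carrying human V2 receptor. Cells were seeded in 2% FCS DMEM/F12 one day earlier.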

[2] = molecular target: T2, human V1a receptor (Homo sapiens, UniProt P37288); assay: Cellular in vitro assay for determining vasopressin receptor activity (V1a, aequorin luminescence); format: cell-based; conditions: for pIC50: CHO cell line transfected with the human V1a receptor, [Arg8]-vasopressin at EC50 concentration, read-out: IC50 hV1a; for ratio IC50 hV2/hV1a: selectivity ratio of IC50 hV2 to IC50 hV1a
T2 construct: expressed in transfected cells; host or cells: CHO K1 (ATCC), also stably transfected with a modified aequorin
T2 sequence (P37288 whole entry): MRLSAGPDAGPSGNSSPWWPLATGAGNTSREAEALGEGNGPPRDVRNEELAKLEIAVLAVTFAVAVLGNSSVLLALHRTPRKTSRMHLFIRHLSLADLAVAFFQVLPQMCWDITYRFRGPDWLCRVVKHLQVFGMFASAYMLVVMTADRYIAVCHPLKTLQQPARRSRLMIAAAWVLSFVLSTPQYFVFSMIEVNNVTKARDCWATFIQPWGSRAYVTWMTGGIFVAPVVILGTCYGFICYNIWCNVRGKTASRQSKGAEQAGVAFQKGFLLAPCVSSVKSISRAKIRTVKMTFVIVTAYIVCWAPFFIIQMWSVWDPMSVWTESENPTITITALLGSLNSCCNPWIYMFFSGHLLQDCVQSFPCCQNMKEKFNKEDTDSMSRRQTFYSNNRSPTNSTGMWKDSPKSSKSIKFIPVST

T1 sequence (P30518 whole entry): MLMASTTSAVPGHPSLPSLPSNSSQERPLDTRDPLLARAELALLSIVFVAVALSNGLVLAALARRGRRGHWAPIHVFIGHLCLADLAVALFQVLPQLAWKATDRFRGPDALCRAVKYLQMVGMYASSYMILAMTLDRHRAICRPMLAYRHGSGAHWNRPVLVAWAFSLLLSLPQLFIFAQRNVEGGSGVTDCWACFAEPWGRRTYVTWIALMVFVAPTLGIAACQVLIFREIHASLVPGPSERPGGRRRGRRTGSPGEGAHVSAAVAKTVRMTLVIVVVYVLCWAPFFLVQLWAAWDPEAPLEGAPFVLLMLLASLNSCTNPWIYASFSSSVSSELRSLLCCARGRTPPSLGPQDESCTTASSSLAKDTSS

| pIC50 [1] | pIC50 [2] | ratio IC50 hV2/hV1a [2] | SMILES |
| --- | --- | --- | --- |
| 6.68 | 8.08 | 25.0 | O=C1NC(c2nc(Cn3nc(-c4ccc(Cl)cc4)n(C[C@H](O)C(F)(F)F)c3=O)nn2-c2ncccc2Cl)CO1 (mixture of isomers) [Example 112, 5-(4-Chlorophenyl)-2-({1-(3-chloropyridin-2-yl)-5-[2-oxo-1,3-oxazolidin-4-yl]-1H-1,2,4-triazol-3-yl}methyl)-4-[(2S)-3,3,3-trifluoro-2-hydroxypropyl]-2,4-dihydro-3H-1,2,4-triazol-3-one] |
| 7.79 | 8.46 | 4.7 | C[C@H](OC(N)=O)c1nc(Cn2nc(-c3ccc(Cl)cc3)n(C[C@H](O)C(F)(F)F)c2=O)nn1-c1c(Cl)cccc1Cl [Example 1, (1S)-1-[3-({3-(4-Chlorophenyl)-5-oxo-4-[(2S)-3,3,3-trifluoro-2-hydroxypropyl]-4,5-dihydro-1H-1,2,4-triazol-1-yl}methyl)-1-(2,6-dichlorophenyl)-1H-1,2,4-triazol-5-yl]ethyl Carbamate] |
| 7.13 | 7.47 | 2.2 | CNc1ccncc1-n1nc(Cn2nc(-c3ccc(Cl)cc3)n(C[C@H](O)C(F)(F)F)c2=O)nc1C(C)N (mixture of isomers) [Example 124, 2-({5-[1-Aminoethyl]-1-[4-(methylamino)pyridin-3-yl]-1H-1,2,4-triazol-3-yl}methyl)-5-(4-chlorophenyl)-4-[(2S)-3,3,3-trifluoro-2-hydroxypropyl]-2,4-dihydro-3H-1,2,4-triazol-3-one hydrochloride] |
| 7.84 | 9.00 | 14.5 | CN(C)C1(c2nc(Cn3nc(-c4ccc(Cl)cc4)n(C[C@H](O)C(F)(F)F)c3=O)nn2-c2ccccc2Cl)CC1 [Example 79, 5-(4-Chlorophenyl)-2-({1-(2-chlorophenyl)-5-[1-(dimethylamino)cyclopropyl]-1H-1,2,4-triazol-3-yl}methyl)-4-[(2S)-3,3,3-trifluoro-2-hydroxypropyl]-2,4-dihydro-3H-1,2,4-triazol-3-one] |
